Read-outs that look alike come from different tables or passages of the source.
Tests used:
[1] = molecular target: MAGL (Homo sapiens (Human), UniProt Q99685); assay: In vitro competitive activity-based protein profiling (gel-based, FP-Rh or HT-01 probe); type: biochemical; conditions: for IC50: read-out: MAGL Human PC3 (IC50)
Experimental: In Vitro Competitive Activity-Based Protein Profiling.
Proteomes (human prefrontal cortex or cell membrane fractions) (50 μL, 1.0 mg/mL total protein concentration) were preincubated with varying concentrations of inhibitors at 37° C. After 30 min, FP-Rh or HT-01 (1.0 μL, 50 μM in DMSO) was added and the mixture was incubated for another 30 min at room temperature. Reactions were quenched with SDS loading buffer (15 μL—4×) and run on SDS-PAGE.

[2] = molecular target: MAGL (Mus musculus (Mouse), UniProt O35678); assay: In vitro competitive activity-based protein profiling, mouse brain proteome; type: biochemical; conditions: 1 uM; mouse
[3] = human PC3, read-out: MAGL % Inhibition at 1 μM (human PC3)
[4] = human PFC (prefrontal cortex), read-out: MAGL % Inhibition at 1 μM (human PFC)

Chain of MAGL (Homo sapiens (Human), UniProt Q99685) (Q99685 whole entry): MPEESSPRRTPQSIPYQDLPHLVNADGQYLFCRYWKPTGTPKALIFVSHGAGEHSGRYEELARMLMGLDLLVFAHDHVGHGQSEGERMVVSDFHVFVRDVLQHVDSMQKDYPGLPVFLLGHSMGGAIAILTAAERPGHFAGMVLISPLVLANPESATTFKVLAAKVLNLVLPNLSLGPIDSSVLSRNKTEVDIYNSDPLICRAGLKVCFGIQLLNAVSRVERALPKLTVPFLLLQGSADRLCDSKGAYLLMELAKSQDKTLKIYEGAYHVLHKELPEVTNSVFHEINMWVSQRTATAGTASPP
Chain of MAGL (Mus musculus (Mouse), UniProt O35678) (O35678 whole entry): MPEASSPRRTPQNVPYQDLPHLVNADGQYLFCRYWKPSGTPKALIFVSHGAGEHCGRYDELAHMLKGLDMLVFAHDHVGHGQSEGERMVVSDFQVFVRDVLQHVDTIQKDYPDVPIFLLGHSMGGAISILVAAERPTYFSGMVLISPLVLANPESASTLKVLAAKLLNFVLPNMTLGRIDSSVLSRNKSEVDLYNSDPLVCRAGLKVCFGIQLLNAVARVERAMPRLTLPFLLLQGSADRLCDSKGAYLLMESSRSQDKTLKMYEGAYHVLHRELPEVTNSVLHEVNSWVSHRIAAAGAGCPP

Compound	inhibition at 1 µM [1, 3] [%]	inhibition at 1 µM [1, 4] [%]	IC50 ([1]; human PC3) [nM]	inhibition at 1 µM [2] [%]
O=C(OC(C(F)(F)F)C(F)(F)F)N1CCC2(CCCN2C(=O)c2cnn3c2NCCC3)CC1 [Example 147, 1.1,1,3,3,3-Hexafluoropropan-2-yl 1-(4,5,6,7-tetrahydropyrazolo [1,5-a]pyrimidine-3-carbonyl)-1,8-diazaspiro[4.5] decane-8-carboxylate]	> 75	> 75	< 100	> 75
O=C(OC(C(F)(F)F)C(F)(F)F)N1CCC2(CCCN2C(=O)c2cnn3c2OCCC3)CC1 [Example 149, 1,1,1,3,3,3-Hexafluoropropan-2-yl 1-(6,7-dihydro-5H-pyrazolo[5,1-b] [1,3]oxazine-3-carbonyl)-1.8-diazaspiro[4.5] decane-8-carboxylate]	> 75	> 75	< 100	> 75
O=C(OC(C(F)(F)F)C(F)(F)F)N1CCC2(CCCN2C(=O)c2cc3n(n2)CCN(CC2CC2)C3)CC1 [Example 156, 1,1,1,3,3,3-Hexafluoropropan-2-yl 1-(5-(cyclopropylmethyl)-4,5,6,7-tetrahydropyrazolo [1,5-a]pyrazine-2-carbonyl)-1,8-diazaspiro[4.5] decane-8-carboxylate]	> 75	> 75	< 100	> 75
O=C(O)CN1CCn2cc(C(=O)N3CCCC34CCN(C(=O)OC(C(F)(F)F)C(F)(F)F)CC4)nc2C1 [Example 158, 2-(2-(8-(((1,1,1,3,3,3-Hexafluoropropan-2-yl)oxy)carbonyl)-1,8-diazaspiro[4.5]decane-1-carbonyl)-5,6-dihydroimidazo[1,2-a]pyrazin-7(8H)-yl) acetic acid]	> 75	> 75	–	25 to 75
O=C(OC(C(F)(F)F)C(F)(F)F)N1CCC2(CCCN2C(=O)c2cn3c(n2)CN(C2CCOCC2)CC3)CC1 [Example 162, 1,1,1,3,3,3-Hexafluoropropan-2-yl 1-(7-(tetrahydro-2H-pyran-4-yl)-5,6,7,8-tetrahydroimidazo [1,2-a]pyrazine-2-carbonyl)-1,8-diazaspiro[4.5] decane-8-carboxylate]	> 75	–	< 100	> 75
O=C(OC(C(F)(F)F)C(F)(F)F)N1CCC2(CCCN2C(=O)c2cn3nc(Cl)ccc3n2)CC1 [Example 163, 1,1,1,3,3,3-Hexafluoropropan-2-yl 1-(6-chloroimidazo[1,2-b]pyridazine-2-carbonyl)-1,8-diazaspiro[4.5] decane-8-carboxylate]	> 75	–	–	> 75
O=C(OC(C(F)(F)F)C(F)(F)F)N1CCC2(CCCN2C(=O)c2cc3nccc(C(F)(F)F)n3n2)CC1 [Example 164, 1,1,1,3,3,3-Hexafluoropropan-2-yl 1-(7-(trifluoromethyl)pyrazolo[1,5-a]pyrimidine-2-carbonyl)-1,8-diazaspiro[4.5] decane-8-carboxylate]	> 75	> 75	–	> 75
O=C(OC(C(F)(F)F)C(F)(F)F)N1CCC2(CCCN2C(=O)c2cc3nccc(C4CC4)n3n2)CC1 [Example 165, 1,1,1,3,3,3-Hexafluoropropan-2-yl 1-(7-cyclopropylpyrazolo [1,5-a]pyrimidine-2-carbonyl)-1,8-diazaspiro[4.5] decane-8-carboxylate]	> 75	> 75	–	> 75
O=C(OC(C(F)(F)F)C(F)(F)F)N1CCC2(CCCN2C(=O)c2cc3nc(C(F)F)cc(C(F)F)n3n2)CC1 [Example 166, 1,1,1,3,3,3-Hexafluoropropan-2-yl 1-(5,7-bis(difluoromethyl)pyrazolo [1,5-a]pyrimidine-2-carbonyl)-1,8-diazaspiro [4.5]decane-8-carboxylate]	> 75	> 75	–	> 75
O=C(OC(C(F)(F)F)C(F)(F)F)N1CCC2(CCCN2C(=O)c2cc3nc(C4CC4)cc(C(F)F)n3n2)CC1 [Example 167, 1.1,1,3,3,3-Hexafluoropropan-2-yl 1-(5-cyclopropyl-7-(difluoromethyl)pyrazolo[1,5-a]pyrimidine-2-carbonyl)-1,8-diazaspiro[4.5] decane-8-carboxylate]	> 75	> 75	–	> 75
Cc1cc(C)n2nc(C)c(C(=O)N3CCCC34CCN(C(=O)OC(C(F)(F)F)C(F)(F)F)CC4)c2n1 [Example 172, 1,1,1,3,3,3-Hexafluoropropan-2-yl 1-(2,5,7-trimethylpyrazolo [1,5-a]pyrimidine-3-carbonyl)-1,8-diazaspiro[4.5] decane-8-carboxylate]	> 75	> 75	< 100	> 75
O=C(O)Cn1cc(Cl)c(C(=O)N2CCCC23CCN(C(=O)OC(C(F)(F)F)C(F)(F)F)CC3)n1 [Example 173, 2-(4-Chloro-3-(8-(((1,1,1,3,3,3-hexafluoropropan-2-yl)oxy)carbonyl)-1,8-diazaspiro[4.5]decane-1-carbonyl)-1H-pyrazol-1-yl)acetic acid]	–	> 75	–	< 25
Cn1cc(CN2CCCC23CCN(C(=O)OC(C(F)(F)F)C(F)(F)F)CC3)cn1 [Example 175, 1,1,1,3,3,3-Hexafluoropropan-2-yl 1-((1-methyl-1H-pyrazol-4-yl)methyl)-1,8-diazaspiro[4.5] decane-8-carboxylate]	> 75	> 75	–	25 to 75
CC1(NC(=O)c2cn3c(n2)CN(C(=O)C2(F)CC2)CC3)CCN(C(=O)OC(C(F)(F)F)C(F)(F)F)CC1 [Example 192, 1,1,1,3,3,3-Hexafluoropropan-2-yl 4-(7-(1-fluorocyclopropane-1-carbonyl)-5,6,7,8-tetrahydroimidazo[1,2-a]pyrazine-2-carboxamido)-4-methylpiperidine-1-carboxylate]	> 75	–	< 100	> 75
CCC(C)(C)C(=O)N1CCn2cc(C(=O)NC3(C)CCN(C(=O)OC(C(F)(F)F)C(F)(F)F)CC3)nc2C1 [Example 193, 1,1,1,3,3,3-Hexafluoropropan-2-yl 4-(7-(2,2-dimethylbutanoyl)-5,6,7,8-tetrahydroimidazo[1,2-a]pyrazine-2-carboxamido)-4-methylpiperidine-1-carboxylate]	> 75	–	< 100	> 75
O=C(OC(C(F)(F)F)C(F)(F)F)N1CCC2(CCCN2C(=O)C(F)(F)c2ncc(F)cn2)CC1 [Example 196, 1,1,1,3,3,3-Hexafluoropropan-2-yl 1-(2,2-difluoro-2-(5-fluoropyrimidin-2-yl)acetyl)-1,8-diazaspiro [4.5]decane-8-carboxylate]	> 75	> 75	–	> 75

Now from value to compound:

inhibition at 1 µM [1, 3] [%]	inhibition at 1 µM [1, 4] [%]	IC50 ([1]; human PC3) [nM]	inhibition at 1 µM [2] [%]	Compound
> 75	> 75	–	> 75	O=C(OC(C(F)(F)F)C(F)(F)F)N1CCC2(CCCN2C(=O)c2nn3cccnc3c2Cl)CC1 [Example 157, 1,1,1,3,3,3-Hexafluoropropan-2-yl 1-(3-chloropyrazolo[1,5-a]pyrimidine-2-carbonyl)-1,8-diazaspiro[4.5] decane-8-carboxylate]
–	> 75	< 100	> 75	O=C(OC(C(F)(F)F)C(F)(F)F)N1CCC2(CCCN2C(=O)c2cn3ccncc3n2)CC1 [Example 159, 1,1,1,3,3,3-Hexafluoropropan-2-yl 1-(imidazo[1,2-a]pyrazine-2-carbonyl)-1,8-diazaspiro[4.5] decane-8-carboxylate]
> 75	> 75	< 100	> 75	CN(C(=O)c1cnc2cccnn12)C1(C)CCN(C(=O)OC(C(F)(F)F)C(F)(F)F)CC1 [Example 168, 1,1,1,3,3,3-Hexafluoropropan-2-yl 4-methyl-4-(N-methylimidazo[1,2-b]pyridazine-3-carboxamido) piperidine-1-carboxylate]
> 75	> 75	< 100	> 75	Cc1nn2cccnc2c1C(=O)N1CCCC12CCN(C(=O)OC(C(F)(F)F)C(F)(F)F)CC2 [Example 171, 1,1,1,3,3,3-Hexafluoropropan-2-yl 1-(2-methylpyrazolo[1,5-a]pyrimidine-3-carbonyl)-1,8-diazaspiro[4.5] decane-8-carboxylate]
> 75	> 75	–	> 75	CN(C(=O)C1(c2ncccn2)CC1)C1(C)CCN(C(=O)OC(C(F)(F)F)C(F)(F)F)CC1 [Example 177, 1,1,1,3,3,3-Hexafluoropropan-2-yl 4-methyl-4-(N-methyl-1-(pyrimidin-2-yl)cyclopropane-1-carboxamido) piperidine-1-carboxylate]
> 75	> 75	–	> 75	CCN(C(=O)c1cn2c(n1)CN(C1CC1)CC2)C1(C)CCN(C(=O)OC(C(F)(F)F)C(F)(F)F)CC1 [Example 178, 1,1,1,3,3,3-Hexafluoropropan-2-yl 4-(7-cyclopropyl-N-ethyl-5,6,7,8-tetrahydroimidazo [1,2-a]pyrazine-2-carboxamido)-4-methylpiperidine-1-carboxylate]
> 75	> 75	–	< 25	O=C(OC(C(F)(F)F)C(F)(F)F)N1CCC2(CCCN2C(=O)Cc2ncccn2)CC1 [Example 195, 1,1,1,3,3,3-Hexafluoropropan-2-yl 1-(2-(pyrimidin-2-yl)acetyl)-1,8-diazaspiro[4.5] decane-8-carboxylate]

Reference: patent publication US11142526B2, “Spirocycle compounds and methods of making and using same” (H. Lundbeck A/S, priority 2017, dated 2021)
